Measurements reported in patent publication US10392643B2, “Methods of using acyl-CoA synthetase for biosynthetic production of acyl-CoAs” (Conagen Inc., priority 2013, dated 2019).

Tested on: ghost pepper ACS1
Assay: HPLC-based method to measure the activity of ghost pepper ACS1 against carboxylic acids
Format: biochemical, ghost chili pepper
Conditions: for activities of ACS1 against various carboxylic acids (FIG. 8): 200 μM carboxylic acids as substrate, 30 min, acyl-CoA formation by HPLC at 257 nm, 100 mM Tri buffer, pH8.0 (FIG. 8 legend); for ACS1 activity with 8-methyl-trans-6-nonenoic acid or 8-methylnonanoic acid as a substrate (FIG. 9): HPLC profiles of enzymatic products, 6E compared with 8M
Method: C2, acetic acid; C4, butyric acid; C6, hexanoic acid, C8,caprylic acid; C10, capric acid; C12, lauric acid; C14, myristic acid; C16, palmitic acid; C18, stearic acid. The assay was performed in 100 mM Tri buffer, pH8.0.
Applicants used an HPLC-based method to measure the activity of ghost pepper ACS1 (Chen et al., 2011). Briefly, reaction mixtures (400 μL) contained 0.1 M Tris-HCl, […], 2 mM DTT, 5 mM ATP, 10 mM MgCl2, 0.5 mM CoA, 0.1% Triton and 200 μM carboxylic acids. The reaction was initiated by adding 20 μl of purified enzyme and stopped after 30 min by addition of 20 μl al acetic acid. HPLC was performed with Dionex-UltiMate® 3000 LC Systems (Thermo Scientific) using an Acclaim® 120 C18 reversed-phase column (Thermo Scientific; 3 μ, 120 Å, 150×3 mm). The mobile phase consisted of solvent A (0.1% trifluoroacetic acid) and solvent B (acetonitrile). The gradient elution procedure was as follows: 0 to 5 min, 5% of B; 5 to 9 min, a linear gradient from 5 to 80% of B; 9 to 11 min, 80% of B; 11 to 12 min, 5% of B. The flow rate was 0.6 ml/min. The diode array detector collected data in the 200- to 400-nm range. For detection and quantification of substrate and products, peak areas were measured at 257 nm.

| SMILES | activities of ACS1 against various carboxylic acids (FIG. 8) | ACS1 activity with 8-methyl-trans-6-nonenoic acid or 8-methylnonanoic acid as a substrate (FIG. 9) |
| --- | --- | --- |
| CCCCCCCCCC(=O)O [capric acid] | highest activity |  |
| CC(=O)O [acetic acid] | did not show any activity |  |
| CC(C)/C=C/CCCCC(=O)O [6E, 8-methyl-trans-6-nonenoic acid] |  | higher activity |
| CC(C)CCCCCCC(=O)O [8M, 8-methylnonanoic acid] |  | showed activities |
| CCCC(=O)O [butyric acid] | did not show any activity |  |
